Experimental findings from ChEMBL document CHEMBL5029198, “Water-Soluble Nystatin and Derivative” (ACS Med Chem Lett, 2022) are described below.

The test system of series [1] is Candida albicans. The series can be described thus: Antifungal activity against Candida albicans ATCC 10231 assessed as reduction in fungal growth incubated overnight by broth dilution method. The series is classed as functional. A general note: In broth dilution the organism is exposed to a series of concentrations in liquid medium.
In series [2] the test system is Aspergillus niger. Put plainly: Antifungal activity against Aspergillus niger ATCC 20057 assessed as reduction in fungal growth incubated overnight by broth dilution method. It counts as functional.
Series [3] in a line: Cytotoxicity against human HEp-2 cells assessed as reduction in cell viability incubated for 40 to 60 mins by resazurin dye based assay. The following applies: time 40-60 min. A general note: The colour change of resazurin is a common sign of viable cells or microbes.
Series [4] is described as follows: Hemolytic activity in human RBC at 0.25 mg/ml measured after 1 hr. It counts as ADME, tissue-based. The following applies: erythrocyte.
Series [5] in a line: Hemolytic activity in human RBC at 0.5 mg/ml measured after 1 hr relative to control. The series is classed as ADME, tissue-based, Erythrocyte. The following applies: red blood cells, read-out: Activity.
A short description of series [6]: Protein binding in human plasma assessed as unbound fraction at 0.05 mg/ml measured after 24 hrs by RP-HPLC analysis (Rvb= 0.014 mg/ml). It counts as ADME, cell-free.
Series [7] in a line: Protein binding in human plasma assessed as unbound fraction at 0.1 mg/ml measured after 24 hrs by RP-HPLC analysis (Rvb= 0.069 mg/ml). It counts as ADME, cell-free.
Series [8] can be described thus: Protein binding in human plasma assessed as unbound fraction at 0.1 mg/ml measured after 48 hrs by RP-HPLC analysis (Rvb= 0.069 mg/ml). It counts as ADME, cell-free.
A short description of series [9]: Protein binding in human plasma assessed as unbound fraction at 0.25 mg/ml measured after 24 hrs by RP-HPLC analysis (Rvb= 0.147 mg/ml). It counts as ADME, cell-free.
Series [10] can be described thus: Protein binding in human plasma assessed as unbound fraction at 0.25 mg/ml measured after 48 hrs by RP-HPLC analysis (Rvb= 0.147 mg/ml). The series is classed as ADME, cell-free.
Series [11] can be described thus: Protein binding in human plasma assessed as unbound fraction at 0.5 mg/ml measured after 24 hrs by RP-HPLC analysis (Rvb= 0.211 mg/ml). The series is classed as ADME, cell-free.
The nature of series [12]: Protein binding in human plasma assessed as unbound fraction at 0.5 mg/ml measured after 48 hrs by RP-HPLC analysis (Rvb= 0.211 mg/ml). It counts as ADME, cell-free.
Series [13] can be described thus: Protein binding in human plasma assessed as free fraction at 0.1 mg/ml measured after 48 hrs by RP-HPLC analysis relative to control. It counts as ADME, cell-free.
The nature of series [14]: Protein binding in human plasma assessed as free fraction at 0.25 mg/ml measured after 48 hrs by RP-HPLC analysis relative to control. The series is classed as ADME, cell-free.
A short description of series [15]: Protein binding in human plasma assessed as free fraction at 0.5 mg/ml measured after 48 hrs by RP-HPLC analysis relative to control. It counts as ADME, cell-free.
Series [16] can be described thus: Protein binding in human plasma at 0.25 mg/ml measured after 24 hrs by RP-HPLC analysis relative to control. The following applies: read-out: PPB (converted). It counts as ADME, cell-free.
Series [17] can be described thus: Protein binding in human plasma at 0.5 mg/ml measured after 24 hrs by RP-HPLC analysis relative to control. The series is classed as ADME, cell-free. The following applies: read-out: PPB (converted).
The nature of series [18]: Stability of compound in human plasma assessed as retention time at 0.5 mg/ml measured after 6 hrs by HPLC analysis. It counts as ADME, cell-free.
Series [19] can be described thus: Stability of compound in human plasma assessed as retention time at 0.5 mg/ml measured after 48 hrs by HPLC analysis. The series is classed as ADME, cell-free.
A short description of series [20]: Aqueous solubility of compound at up to 100 mg/ml. The following applies: buffer. It counts as physicochemical.

Converted amounts (≈) assume the structure as drawn. Where a SMILES comes first, the peptide text is derived from it. Bridges are numbered along the chain shown (N, C = ends). [ ]: non-standard residue; d: D form. The star is where a group is joined. X1 = CC[C@H](C)CCCCC(=O)*; Dab = NCC[C@H](N)C(=O)O

In general, MIC refers to the least concentration at which growth counts as inhibited. Consider `CC[C@H](C)CCCCC(=O)N[C@@H](CCN)C(=O)N[C@H](C(=O)N[C@@H](CCN)C(=O)N[C@H]1CCNC(=O)[C@H]([C@@H](C)O)NC(=O)[C@H](CCN)NC(=O)[C@H](CCN)NC(=O)[C@H](CC(C)C)NC(=O)[C@@H](Cc2ccccc2)NC(=O)[C@H](CCN)NC1=O)[C@@H](C)O` (X1-[Dab]T[Dab][Dab][Dab][dF]L[Dab][Dab]T; lactam 4-C), for which the minimal inhibitory concentration (MIC) in [1] and in series [2] was greater than 35 µg/mL in each case.
For the compound `Clc1ccc(COC(Cn2ccnc2)c2ccc(Cl)cc2Cl)cc1` (configuration not stated) [ECONAZOLE], the MIC in series [1] and in series [2] was greater than 35 µg/mL each time.
Usually CC50 stands for the concentration at which the toxic effect on the cells reaches its halfway point. `C[C@@H]1[C@H](O)[C@@H](C)/C=C/C=C/C=C/C=C/C=C/C=C/C=C/[C@H](O[C@@H]2O[C@H](C)[C@@H](O)[C@H](N)[C@@H]2O)C[C@@H]2O[C@](O)(C[C@@H](O)C[C@@H](O)[C@H](O)CC[C@@H](O)C[C@@H](O)CC(=O)O[C@H]1C)C[C@H](O)[C@H]2C(=O)O` [AMPHOTERICIN B]: the MIC in series [1] was 5 µg/mL (≈ 5.41 µM); in [2], 31.5 µg/mL (≈ 34.1 µM). Further, the 50% cytotoxic concentration (CC50) in [3] was 87 µg/mL (≈ 94.1 µM).
On to `CC(=O)O.COC(=O)[C@H]1[C@@H]2C[C@@H](O[C@@H]3O[C@H](C)[C@@H](O)[C@H](N)[C@@H]3O)/C=C/C=C/C=C/C=C/CC/C=C/C=C/[C@H](C)[C@@H](O)[C@@H](C)[C@H](C)OC(=O)C[C@H](O)C[C@H](O)C[C@H](O)CC[C@@H](O)[C@H](O)C[C@](O)(C[C@@H]1O)O2`, for which the figures for the MIC in series [1] and in [2] were 30 µg/mL and greater than 35 µg/mL, respectively.
Regarding NYSTATIN [listing 1 of 2 here], in series [4], the Activity entry is given as “Toxic”.
For NYSTATIN [listing 2 of 2 here], the minimum inhibitory concentration (MIC) in [1] was 10 µg/mL; in series [2] it was 22.5 µg/mL.
For the compound `CC(=O)O.C[C@@H]1[C@H](O)[C@@H](C)/C=C/C=C/CC/C=C/C=C/C=C/C=C/[C@H](O[C@@H]2O[C@H](C)[C@@H](O)[C@H](N)[C@@H]2O)C[C@@H]2O[C@](O)(C[C@@H](O)[C@H](O)CC[C@@H](O)C[C@@H](O)C[C@@H](O)CC(=O)O[C@H]1C)C[C@H](O)[C@H]2C(=O)NCCO`, the results for the MIC in [1] and in series [2] were 5 µg/mL and 23.6 µg/mL, respectively. Moreover, the CC50 in series [3] was 149 µg/mL. In series [4], the Activity result was “Non-Toxic”. In addition, in series [5], the hemolysis at 1 h, 0.5 mg/ml came out at 62%. Besides, the “Cp(f)” value in series [6] was 13 µg/mL; in [7], 42 µg/mL; in series [8] it was 30 µg/mL; in series [9], 120 µg/mL; in series [10], 100 µg/mL; in series [11] it was 168 µg/mL. Further, the “Cp(f)” value in series [12] came out at 137 µg/mL. In addition, the fraction unbound at 48 h, 0.1 mg/ml in series [13] was 0.3. Besides, in series [14], the fraction unbound at 48 h, 0.25 mg/ml was 0.4. Further, in [15], the fraction unbound at 48 h, 0.5 mg/ml turned out to be 0.274. The fraction unbound at 24 h, 0.25 mg/ml in [16] was 0.48. For the same compound, the fraction unbound at 24 h, 0.5 mg/ml in [17] is 0.34. Further, the values for the Retention_time in series [18] and in [19] were 9.4 min and 6.5 min, respectively. Besides, in series [20], the solubility result is listed as “Soluble”.
